“Also recorded” adds a separate entry of the source. Read-outs that look alike come from different tables or passages of the source.
What was measured:
Assay type in all cases: cell-based
NPC1L1 [1] = biological target: T1, NPC1L1 (Homo sapiens, UniProt Q9UHC9, T1073A)
T1 construct: expressed in transfected cells; host or cells: Huh7-derived cells; the L1 3+ line (NPC1L1-overexpressing clone 3) is proposed for screening
T1 sequence (Q9UHC9 22-1359 T1073A): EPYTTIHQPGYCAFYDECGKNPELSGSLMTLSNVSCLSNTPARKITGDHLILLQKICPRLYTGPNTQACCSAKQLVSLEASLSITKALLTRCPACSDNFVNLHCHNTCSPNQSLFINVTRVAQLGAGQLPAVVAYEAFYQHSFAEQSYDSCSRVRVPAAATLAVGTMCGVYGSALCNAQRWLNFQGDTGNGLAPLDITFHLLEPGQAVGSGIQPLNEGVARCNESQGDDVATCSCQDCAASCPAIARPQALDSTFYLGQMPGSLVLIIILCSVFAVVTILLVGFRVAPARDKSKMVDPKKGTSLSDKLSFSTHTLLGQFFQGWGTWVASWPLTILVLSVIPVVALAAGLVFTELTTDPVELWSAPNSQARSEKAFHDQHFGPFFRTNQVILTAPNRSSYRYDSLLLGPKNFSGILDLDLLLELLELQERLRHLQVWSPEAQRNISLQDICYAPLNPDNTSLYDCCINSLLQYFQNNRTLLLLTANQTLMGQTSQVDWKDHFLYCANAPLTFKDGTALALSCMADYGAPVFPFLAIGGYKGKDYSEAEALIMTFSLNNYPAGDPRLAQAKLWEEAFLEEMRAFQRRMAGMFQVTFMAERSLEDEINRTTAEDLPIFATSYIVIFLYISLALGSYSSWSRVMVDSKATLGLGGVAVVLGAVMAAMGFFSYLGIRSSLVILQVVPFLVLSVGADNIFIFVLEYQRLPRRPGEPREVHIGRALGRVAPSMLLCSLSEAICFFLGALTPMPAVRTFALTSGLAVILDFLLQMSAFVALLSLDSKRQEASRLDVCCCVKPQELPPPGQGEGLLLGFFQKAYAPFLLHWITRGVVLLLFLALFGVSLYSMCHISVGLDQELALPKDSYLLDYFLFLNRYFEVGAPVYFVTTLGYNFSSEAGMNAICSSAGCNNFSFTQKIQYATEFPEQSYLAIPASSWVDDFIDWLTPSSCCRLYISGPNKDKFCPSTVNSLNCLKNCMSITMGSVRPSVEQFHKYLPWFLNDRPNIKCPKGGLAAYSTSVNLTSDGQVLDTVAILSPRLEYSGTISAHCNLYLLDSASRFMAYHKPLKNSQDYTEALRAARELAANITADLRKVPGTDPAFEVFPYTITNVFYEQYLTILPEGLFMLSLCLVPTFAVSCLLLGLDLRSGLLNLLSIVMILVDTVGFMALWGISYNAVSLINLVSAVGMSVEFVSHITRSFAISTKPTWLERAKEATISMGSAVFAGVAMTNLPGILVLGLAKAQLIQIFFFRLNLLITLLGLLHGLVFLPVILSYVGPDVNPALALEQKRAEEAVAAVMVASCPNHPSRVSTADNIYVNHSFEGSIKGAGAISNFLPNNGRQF

NPC1L1 [2] = biological target: T1, NPC1L1; remark: listed apart in the source
NPC1 = biological target: T2, NPC1 (Homo sapiens, UniProt O15118); assay: Lysosomal cholesterol storage in normal human fibroblasts treated with inhibitor; settings: normal human fibroblasts incubated overnight, fluorescent cholesterol probe, FIG. 6 and 7
T2 construct: endogenous in cells; host or cells: normal human fibroblasts
T2 sequence (O15118 23-1278): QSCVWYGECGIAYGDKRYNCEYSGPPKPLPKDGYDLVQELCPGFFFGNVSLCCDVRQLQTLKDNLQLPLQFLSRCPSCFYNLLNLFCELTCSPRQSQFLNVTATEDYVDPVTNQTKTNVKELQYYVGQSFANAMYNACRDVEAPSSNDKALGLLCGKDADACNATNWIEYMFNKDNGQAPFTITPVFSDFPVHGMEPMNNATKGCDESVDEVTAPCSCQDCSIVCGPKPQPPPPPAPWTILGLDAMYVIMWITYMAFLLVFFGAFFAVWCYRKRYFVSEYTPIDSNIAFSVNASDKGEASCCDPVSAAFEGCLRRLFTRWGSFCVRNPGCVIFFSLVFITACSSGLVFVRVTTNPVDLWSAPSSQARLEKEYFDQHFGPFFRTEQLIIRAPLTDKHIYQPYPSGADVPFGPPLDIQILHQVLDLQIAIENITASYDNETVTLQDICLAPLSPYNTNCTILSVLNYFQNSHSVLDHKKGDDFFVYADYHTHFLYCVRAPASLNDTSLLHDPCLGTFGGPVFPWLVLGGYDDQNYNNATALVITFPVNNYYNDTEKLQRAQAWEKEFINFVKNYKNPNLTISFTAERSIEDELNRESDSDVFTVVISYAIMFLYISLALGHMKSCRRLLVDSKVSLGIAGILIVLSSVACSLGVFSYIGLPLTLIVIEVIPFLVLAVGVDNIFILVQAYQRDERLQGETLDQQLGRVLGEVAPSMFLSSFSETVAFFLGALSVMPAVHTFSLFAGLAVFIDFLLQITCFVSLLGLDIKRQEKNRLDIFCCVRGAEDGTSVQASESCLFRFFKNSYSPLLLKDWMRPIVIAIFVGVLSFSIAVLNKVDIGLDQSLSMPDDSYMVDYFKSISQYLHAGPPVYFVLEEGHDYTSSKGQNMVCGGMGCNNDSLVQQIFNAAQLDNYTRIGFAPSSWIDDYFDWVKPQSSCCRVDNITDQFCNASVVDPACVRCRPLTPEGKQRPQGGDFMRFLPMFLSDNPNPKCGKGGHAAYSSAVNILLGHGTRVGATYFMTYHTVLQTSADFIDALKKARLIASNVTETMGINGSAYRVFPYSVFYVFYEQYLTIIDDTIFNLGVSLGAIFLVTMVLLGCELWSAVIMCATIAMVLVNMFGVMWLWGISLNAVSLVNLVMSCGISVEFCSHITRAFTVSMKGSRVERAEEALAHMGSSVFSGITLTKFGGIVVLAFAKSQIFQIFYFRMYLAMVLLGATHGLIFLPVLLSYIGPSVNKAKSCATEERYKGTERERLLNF

Row | SMILES | identification as inhibitor of NPC1L1 (NPC1L1 [1]) | signal of NPC1L1 promoter upregulation (inhibition of the NPC1L1 protein) (NPC1L1 [2]) | also measured
1 | CCCCN1CCCCC1C(=O)Nc1c(C)cccc1C (stereo not shown) [#7, 1-Butyl-N(2,6-diemethylphenyl)2 piperidine carboxamide] | NPC1L1 inhibitors have been identified | positive signal | 
2 | COc1ccc(NC2=C(C)C(=O)CC2)cc1 [3-[(4-methoxyphenyl)amino]-2-methyl-2-cyclopenten-1-one] | NPC1L1 inhibitors have been identified |  | 
3 | CC(=O)c1ccc(NC(=O)c2cccs2)cc1 [N-(4-acetylphenyl)-2-thiophenecarboxamide] | NPC1L1 inhibitors have been identified |  | 
4 | COc1ccccc1NC1=C(C)C(=O)CC1 [3-[(2-methoxyphenyl)amino]-2-methyl-2-cyclopenten-1-one] | NPC1L1 inhibitors have been identified |  | 
5 | CC1CCNCC1 [#2, 4-methylpiperidine] |  |  | NPC1 inhibition seen as lysosomal cholesterol build-up (NPC1): weaker NPC1 inhibitor
6 | Cl.N#CC1(c2ccccc2)CCNCC1 [#1, 4-Phenyl-4-piperidinecarbonitrile Hydrochloride] |  | positive signal | NPC1 inhibition seen as lysosomal cholesterol build-up (NPC1; hydrochloride): did not demonstrate any NPC1 inhibition; NPC1 inhibition seen as lysosomal cholesterol build-up (NPC1; listed as 4-cyano-4-phenylpiperidine, Hydrochloride): weaker NPC1 inhibitor; identification as inhibitor of NPC1L1 (NPC1L1 [1]; Hydrochloride): NPC1L1 inhibitors have been identified; also recorded: identified as an inhibitor of NPC1L1
7 | CCCC(=O)C1(c2ccccc2)CCNCC1.Cl [#5, 4-butyryl-4-phenylpiperidine hydrochloride] |  |  | NPC1 inhibition seen as lysosomal cholesterol build-up (NPC1; hydrochloride): distinguishable lysosomes filled with cholesterol; NPC1 inhibition seen as lysosomal cholesterol build-up (NPC1; listed as 4-butyryl-4-phenylpiperidine, hydrochloride): NPC1 inhibitor
8 | CC(=O)C1=C(Nc2ccccc2C)CCC1=O [2-acetyl-3-[(2-methylphenyl)amino]-2-cyclopenten-1-one] | NPC1L1 inhibitors have been identified | positive signal | 
9 | CC(Nc1ccccc1O)=C1C(=O)CSC1=O [3 {1-[(2-hydroxyphenyl)amino]ethylidene}-2,4(3H, 5H)-thiophenedione] | NPC1L1 inhibitors have been identified | positive signal | 
10 | c1ccc2c(CN3CCNCC3)cccc2c1 [1-(1-naphthylmethyl)piperazine] | NPC1L1 inhibitors have been identified |  | 
11 | CC(Nc1ccccc1C)=C1C(=O)CSC1=O [3{1-[(2-methylphenyl)amino]ethylidene}-2,4(3H, 5H)-thiophenedione] | NPC1L1 inhibitors have been identified |  | 
12 | O=C1[C@H](CC[C@H](O)c2ccc(F)cc2)[C@@H](c2ccc(O)cc2)N1c1ccc(F)cc1 [Ezetamibe, reference compound] |  | did not inhibit NPC1L1 | 

Reference: patent US20090035784A1 (priority 2004, published 2009)
